Patent US12648892B2, “Emergency eye wash” (Lebrun Labs LLC, priority 2024, dated 2026)
Where “and” joins values, the source holds several entries; their conditions need not be identical. Equal entries are not always repeated. Entries after “also recorded” stand apart in the source; their conditions may differ. Where two headings read alike, the source gives them in different places.

Assays:
cornea = settings: cited from earlier work
[1] = tested on: corneal stromal cell (keratocytes) nuclei; assay: NaOCl titration study, TUNEL positive nuclei counts; assay type: cell-based; settings: New Zealand White, rabbit, 1 min, 8 %
Description: (§1) Whole New Zealand White rabbit eyes were used Prior to exposure a 10-mm internal dosing ring (FIG. 12A, part of the IVD kit) was placed over the central cornea that was then exposed to NaOCl.
Prior to each experiment (<1 h), NaOCl (CASRN 7681-52-9, Sigma-Aldrich, St. Louis, MO) was freshly diluted in sterile deionized water, mixed by five tube inversions prior to each application, and applied directly to the eyes (corneas) by transferring 100 μL with a micropipette into the dosing ring (FIG. 12A); the corneas were then exposed to this solution for exactly 1 min. […] The pH of the 32% NaOCl was measured using a Fisherbrand™ Accumet™ AB150 pH benchtop meter (Fisher Scientific, Waltham, MA). […]
Stained sections were viewed using a Leica DMRE fluorescence microscope (Leica Microsystems Inc., Buffalo Grove, IL). […] An L5 Fluorescence Filter Cube (Leica Microsystems Inc., Buffalo Grove, IL) was used for TUNEL and DoD imaging. Images were processed and analyzed using ImageJ software, version 1.54 (Schneider et al., 2012). […] Three corneal cryosections, each approximately 2.3 mm long and 0.5-0.9 mm wide (depending on swelling), were measured for each eye. To count TUNEL-positive nuclei, the number of discrete TUNEL-positive nuclei in the stroma that meet the size parameters associated with a keratocyte nucleus were recorded for each section using ImageJ software. […]

[2] = pH measurement of solutions; assay type: physicochemical; settings: 32% NaOCl
Description: In another study, how quickly washing must be initiated was studied. AA wash was formulated as described above and used just after injury, 10 minutes after injury or 2 hours after injury. […] However this solution took 3.5 hours of rapid mixing to fully go into solution and the another 1.5 hours to adjust the pH which initially feel below to a pH of 3.25.
(§2) Prior to each experiment (<1 h), NaOCl (CASRN 7681-52-9, Sigma-Aldrich, St. Louis, MO) was freshly diluted in sterile deionized water, mixed by five tube inversions prior to each application, and applied directly to the eyes (corneas) by transferring 100 μL with a micropipette into the dosing ring (FIG. 12A); the corneas were then exposed to this solution for exactly 1 min. Immediately after exposure, corneas were rinsed for exactly 30 s by forcefully dispensing 20 mL saline (9 g/L NaCl) from an eye rinsing syringe (part of the IVD kit). The pH of the 32% NaOCl was measured using a Fisherbrand™ Accumet™ AB150 pH benchtop meter (Fisher Scientific, Waltham, MA).

[3] = tested on: corneal stromal cell (keratocytes) nuclei; assay: Wash bottle study (500-mL bottle, active wash): TUNEL counts and depth of damage (DoD); assay type: cell-based; settings: eyes exposed to 32% sodium hypochlorite, then actively washed 15 min with 500 mL
Description: as §1, §2
A 100-ml beaker or 500-mL emergency eye wash bottle (FIG. 12B) was used to prepare the AA solution and wash the eyes (Lebrun and Nguyen, 2024). These containers hold a ready-to-use eye wash buffer (EWB) solution composed of potassium chloride (CASRN 7447-40-7, 2.7 mM; Fisher Scientific), potassium phosphate monobasic (CASRN 7778-77-0, 1.5 mM; Fisher Scientific), sodium chloride (CASRN 7647-14-5, 137.9 mM; Fisher Scientific), sodium phosphate dibasic (CASRN 7782-85-6, 8.1 mM; Sigma Aldrich), deionized water (ReadyRefresh, Stamford, CT), 1% dextran (CASRN 9004-54-0; Sigma Aldrich), and 1% bovine serum albumin (CASRN 9048-46-8; Sigma Aldrich). Before use, different amounts of powdered AA (CASRN 50-81-7; Sigma Aldrich) are dispersed into the liquid component and rapidly mixed to achieve a predefined concentration (Lebrun et al., 2021c, 2021d, 2021e) to form complete EWB+AA. […] The pH of the liquid portion of the wash solution is adjusted to 7.2 with HCl to ensure that the final wash solution for the 0.2% powdered AA reaches a pH of 6.99±0.5. For the 10% AA condition, the pH was further adjusted to 6.99±0.5 with 1 N NaOH. For the EWB only condition, the pH was adjusted to 6.99±0.5 with 1 N HCl. For the wash step, eyes were either passively soaked in beakers (100-mL conditions) or washed with an eyewash bottle (500-mL conditions) for the indicated times. The eyewash bottle allows for forceful spraying and recycling of the 500-mL solution (Lebrun and Nguyen, 2024). While this bottle can be used in vivo or in vitro, for the in vitro study described here, the eyes were placed cornea-side down in the well at the top of the bottle, and the bottles were compressed so that a jet of solution washed over the eye (see FIG. 12B).
The corneas of whole eyes were exposed to either 100 μL of 32% NaOCl for 1 min or 100 μL deionized sterile water for 1 min (control condition) in a dosing ring. Eyes were then rinsed, and all eyes were washed using 500-mL wash bottles (FIG. 12B). Washing was with sterile tap water (municipal water, Anaheim, CA, 0.22-micron pore size filtered), EWB, or EWB+0.2% AA. After “washing,” eyes were processed following the “postexposure” steps described below.
After washing, eyes were placed in fresh postexposure wells (part of the IVD kit) containing approximately 1.5 mL OM added to the level of the limbus. Eyes were then placed back into a humidified, 5% CO2, 37° C. incubator for 24 h. Corneas were then removed by dissection, placed in 4% paraformaldehyde in phosphate-buffered saline (fixative; Boston BioProducts, Inc., Milford, MA), and stored at 4° C.
After a minimum of 24 h in fixative, corneas were cut in half and infiltrated with 30% sucrose (Capella et al., 1965), and the tissues were then embedded in Tissue-Tek® O.C.T. compound (Sakura Finetek, Torrance, CA), snap frozen in liquid nitrogen, and stored in an ultralow freezer (−80° C., New Brunswick Scientific, Hamburg, Germany). […]

O=C1O[C@H]([C@@H](O)CO)C(O)=C1O [AA, ascorbic acid]
effect on corneal ulceration (cornea; subcutaneous injection of 15% AA solution within 3 h of the burn, once daily): ineffective; also recorded: not effective
effect on corneal ulceration (cornea; topical 10% AA eye drop pH 7.2, 2 h after the burn and hourly for 14 h per day): reduced corneal ulceration

OCl [NaOCl, sodium hypochlorite]
TUNEL positive nuclei count, AVG ± SE (overall average) [1]: 3.1 ± 3.1
pH [2]: 12.04 and 12

Water
Depth of Damage (DoD), AVG ± SE (overall average) [3]: 59.6 ± 3.6%
Depth of Damage (DoD), S. AVG ± SE (section average per eye) [3]: 44.2 ± 2.8% and 68.5 ± 0.5% and 60.9 ± 0.7%
TUNEL positive nuclei count, AVG ± SE (overall average) [3]: 254.9 ± 17.8
TUNEL positive nuclei count, S. AVG ± SE (section average per eye) [3]: 231.0 ± 4.0 and 238.0 ± 2.6 and 287.7 ± 4.1
TUNEL positive nuclei count, AVG ± SE (overall average) ([3]; listed as tap water): 254.9±17.8
Depth of Damage (DoD), AVG ± SE (overall average) ([3]; listed as water): 59.6±3.6%
Depth of Damage (DoD), S. AVG ± SE (section average per eye) ([3]; listed as water): 44.2±2.8% and 68.5±0.5% and 60.9±0.7%
TUNEL positive nuclei count, AVG ± SE (overall average) ([3]; listed as water): 254.9±17.8
TUNEL positive nuclei count, S. AVG ± SE (section average per eye) ([3]; listed as water): 231.0±4.0 and 238.0±2.6 and 287.7±4.1
Depth of Damage (DoD), Section A ([3]; per eye): 47.0% and 68.4% and 62.3%
Depth of Damage (DoD), Section B ([3]; per eye): 41.4% and 69.4% and 59.8%
TUNEL positive nuclei count, Section A ([3]; per eye): 227.0 and 234.0 and 289.0
TUNEL positive nuclei count, Section B ([3]; per eye): 235.0 and 243.0 and 280.0
Depth of Damage (DoD), Section A ([3]; per eye, listed as water): 47.0% and 68.4% and 62.3%
Depth of Damage (DoD), Section B ([3]; per eye, listed as water): 41.4% and 69.4% and 59.8%
Depth of Damage (DoD), Section C ([3]; per eye, listed as water): 67.6% and 60.7%
TUNEL positive nuclei count, Section A ([3]; per eye, listed as water): 227.0 and 234.0 and 289.0
TUNEL positive nuclei count, Section B ([3]; per eye, listed as water): 235.0 and 243.0 and 280.0
TUNEL positive nuclei count, Section C ([3]; per eye, listed as water): 237.0 and 294.0
